{"source": "ChEMBL document CHEMBL3616411", "about": "“Discovery of 1-hydroxypyridine-2-thiones as selective histone deacetylase inhibitors and their potential application for treating leukemia” (Bioorg Med Chem Lett, 2015)", "key": {"Histone deacetylase 1": {"molecular_target": "Histone deacetylase 1 (Homo sapiens, UniProt Q13547)", "sequence (Q13547 whole entry)": "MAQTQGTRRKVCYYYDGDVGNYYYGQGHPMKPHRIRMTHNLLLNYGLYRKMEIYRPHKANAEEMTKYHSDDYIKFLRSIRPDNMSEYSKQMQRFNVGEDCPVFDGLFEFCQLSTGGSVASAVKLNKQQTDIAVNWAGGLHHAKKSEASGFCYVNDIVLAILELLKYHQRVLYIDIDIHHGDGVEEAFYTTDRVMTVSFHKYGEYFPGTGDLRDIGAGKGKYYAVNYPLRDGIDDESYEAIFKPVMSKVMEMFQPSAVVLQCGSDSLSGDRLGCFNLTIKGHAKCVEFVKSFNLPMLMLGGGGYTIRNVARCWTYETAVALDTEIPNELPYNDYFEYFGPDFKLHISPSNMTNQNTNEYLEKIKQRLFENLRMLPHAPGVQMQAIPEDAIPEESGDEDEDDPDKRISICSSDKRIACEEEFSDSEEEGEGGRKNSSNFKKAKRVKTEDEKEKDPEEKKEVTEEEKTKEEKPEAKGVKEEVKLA", "experiment": "Inhibition of HDAC1 (unknown origin) using RHKK(Ac) fluorogenic acetylated peptide substrate by fluorometric assay"}, "Histone deacetylase 2": {"molecular_target": "Histone deacetylase 2 (Homo sapiens, UniProt Q92769)", "sequence (Q92769 whole entry)": "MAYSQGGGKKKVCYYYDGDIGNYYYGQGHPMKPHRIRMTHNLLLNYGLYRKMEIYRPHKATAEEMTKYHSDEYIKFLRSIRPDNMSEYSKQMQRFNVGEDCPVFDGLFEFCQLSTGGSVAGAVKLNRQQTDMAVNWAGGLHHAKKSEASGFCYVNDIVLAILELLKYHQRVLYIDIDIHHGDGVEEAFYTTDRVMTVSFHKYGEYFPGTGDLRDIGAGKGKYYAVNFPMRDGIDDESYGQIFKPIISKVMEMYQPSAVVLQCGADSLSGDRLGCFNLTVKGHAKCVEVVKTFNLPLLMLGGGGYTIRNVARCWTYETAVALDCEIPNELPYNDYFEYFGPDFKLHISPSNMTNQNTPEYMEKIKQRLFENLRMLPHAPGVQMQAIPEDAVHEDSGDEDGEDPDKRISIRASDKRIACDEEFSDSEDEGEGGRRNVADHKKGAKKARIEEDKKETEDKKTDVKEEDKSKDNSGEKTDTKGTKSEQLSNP"}, "Histone deacetylase 8": {"molecular_target": "T1, Histone deacetylase 8 (Homo sapiens, UniProt Q9BY41)", "T1 sequence (Q9BY41 whole entry)": "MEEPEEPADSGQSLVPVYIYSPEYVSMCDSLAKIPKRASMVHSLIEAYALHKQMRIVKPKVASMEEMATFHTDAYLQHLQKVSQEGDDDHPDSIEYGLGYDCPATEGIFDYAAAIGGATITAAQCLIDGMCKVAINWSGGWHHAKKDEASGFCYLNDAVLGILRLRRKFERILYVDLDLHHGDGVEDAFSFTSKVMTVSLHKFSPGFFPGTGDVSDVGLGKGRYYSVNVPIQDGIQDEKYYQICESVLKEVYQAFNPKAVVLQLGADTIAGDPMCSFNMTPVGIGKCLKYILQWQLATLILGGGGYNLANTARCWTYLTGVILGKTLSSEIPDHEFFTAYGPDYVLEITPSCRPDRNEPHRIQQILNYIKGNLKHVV", "experiment": "Inhibition of HDAC8 (unknown origin) using RHK(Ac)K(Ac) fluorogenic acetylated peptide substrate by fluorometric assay"}, "[1]": {"molecular_target": "T2, Protein deacetylase HDAC6 (Homo sapiens, UniProt Q9UBN7)", "T2 sequence (Q9UBN7 whole entry)": "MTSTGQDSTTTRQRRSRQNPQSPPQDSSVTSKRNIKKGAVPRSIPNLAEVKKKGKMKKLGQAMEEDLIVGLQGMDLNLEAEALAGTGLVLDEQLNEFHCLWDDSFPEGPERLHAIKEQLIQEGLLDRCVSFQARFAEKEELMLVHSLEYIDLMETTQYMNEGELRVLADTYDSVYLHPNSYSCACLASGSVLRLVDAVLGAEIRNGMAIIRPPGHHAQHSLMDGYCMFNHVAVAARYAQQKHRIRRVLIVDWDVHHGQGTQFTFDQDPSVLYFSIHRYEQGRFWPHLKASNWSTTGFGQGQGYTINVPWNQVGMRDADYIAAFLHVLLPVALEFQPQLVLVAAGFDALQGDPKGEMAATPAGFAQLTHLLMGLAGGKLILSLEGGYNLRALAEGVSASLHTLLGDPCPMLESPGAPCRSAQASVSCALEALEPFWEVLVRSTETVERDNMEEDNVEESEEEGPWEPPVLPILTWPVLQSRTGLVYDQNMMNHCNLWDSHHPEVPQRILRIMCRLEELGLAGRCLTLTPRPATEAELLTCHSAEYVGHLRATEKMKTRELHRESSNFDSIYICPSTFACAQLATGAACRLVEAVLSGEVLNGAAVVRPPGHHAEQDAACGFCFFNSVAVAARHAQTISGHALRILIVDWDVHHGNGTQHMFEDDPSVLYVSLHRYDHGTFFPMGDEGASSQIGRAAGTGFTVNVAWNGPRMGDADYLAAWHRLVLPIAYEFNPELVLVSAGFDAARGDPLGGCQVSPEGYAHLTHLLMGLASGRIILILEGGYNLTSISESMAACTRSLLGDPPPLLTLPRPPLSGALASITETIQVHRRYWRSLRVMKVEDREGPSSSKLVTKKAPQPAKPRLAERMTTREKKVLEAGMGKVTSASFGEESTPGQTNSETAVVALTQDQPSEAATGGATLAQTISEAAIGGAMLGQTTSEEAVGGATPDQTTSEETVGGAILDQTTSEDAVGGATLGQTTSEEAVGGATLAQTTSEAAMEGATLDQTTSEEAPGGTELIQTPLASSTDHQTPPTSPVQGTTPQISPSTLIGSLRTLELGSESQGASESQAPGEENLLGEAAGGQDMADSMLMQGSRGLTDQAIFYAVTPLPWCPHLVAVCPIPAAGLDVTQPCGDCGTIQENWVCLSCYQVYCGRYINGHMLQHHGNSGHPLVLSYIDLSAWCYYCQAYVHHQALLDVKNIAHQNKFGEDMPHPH", "experiment": "Inhibition of HDAC6 (unknown origin) using RHKK(Ac) fluorogenic acetylated peptide substrate by fluorometric assay"}, "Histone deacetylase 4": {"molecular_target": "Histone deacetylase 4 (Homo sapiens, UniProt P56524)", "sequence (P56524 whole entry)": "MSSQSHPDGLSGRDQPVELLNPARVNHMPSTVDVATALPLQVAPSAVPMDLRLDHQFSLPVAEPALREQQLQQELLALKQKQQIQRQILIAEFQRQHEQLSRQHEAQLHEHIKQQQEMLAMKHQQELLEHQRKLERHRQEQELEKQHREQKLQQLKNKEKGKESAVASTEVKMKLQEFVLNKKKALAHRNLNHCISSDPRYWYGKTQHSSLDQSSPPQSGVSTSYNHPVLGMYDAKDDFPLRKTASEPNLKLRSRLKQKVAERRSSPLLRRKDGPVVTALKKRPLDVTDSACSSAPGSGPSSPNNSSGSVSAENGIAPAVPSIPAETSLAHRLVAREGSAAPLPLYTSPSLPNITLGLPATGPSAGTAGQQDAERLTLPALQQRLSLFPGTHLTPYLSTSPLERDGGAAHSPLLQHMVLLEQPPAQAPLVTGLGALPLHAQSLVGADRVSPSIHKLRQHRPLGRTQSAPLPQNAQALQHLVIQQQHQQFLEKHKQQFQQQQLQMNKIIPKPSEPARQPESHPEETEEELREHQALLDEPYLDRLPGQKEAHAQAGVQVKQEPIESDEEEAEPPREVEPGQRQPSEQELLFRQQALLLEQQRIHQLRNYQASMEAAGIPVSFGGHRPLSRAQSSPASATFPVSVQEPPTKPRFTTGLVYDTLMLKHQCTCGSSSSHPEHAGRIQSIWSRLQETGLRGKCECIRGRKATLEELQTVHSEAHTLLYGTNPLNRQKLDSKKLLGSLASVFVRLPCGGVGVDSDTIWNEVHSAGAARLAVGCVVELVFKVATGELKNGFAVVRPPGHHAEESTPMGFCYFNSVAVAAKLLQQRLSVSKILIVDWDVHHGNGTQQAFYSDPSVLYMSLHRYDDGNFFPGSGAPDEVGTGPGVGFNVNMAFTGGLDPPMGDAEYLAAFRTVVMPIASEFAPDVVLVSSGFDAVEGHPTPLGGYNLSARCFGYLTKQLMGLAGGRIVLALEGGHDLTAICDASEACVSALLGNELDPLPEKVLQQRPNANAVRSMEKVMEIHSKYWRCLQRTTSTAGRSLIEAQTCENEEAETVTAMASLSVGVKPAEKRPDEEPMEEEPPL", "experiment": "Inhibition of HDAC4 (unknown origin) using Boc-Lys(trifluoroacetyl)-AMC fluorogenic acetylated peptide substrate by fluorometric assay"}, "Histone deacetylase 5": {"molecular_target": "Histone deacetylase 5 (Homo sapiens, UniProt Q9UQL6)", "sequence (Q9UQL6 whole entry)": "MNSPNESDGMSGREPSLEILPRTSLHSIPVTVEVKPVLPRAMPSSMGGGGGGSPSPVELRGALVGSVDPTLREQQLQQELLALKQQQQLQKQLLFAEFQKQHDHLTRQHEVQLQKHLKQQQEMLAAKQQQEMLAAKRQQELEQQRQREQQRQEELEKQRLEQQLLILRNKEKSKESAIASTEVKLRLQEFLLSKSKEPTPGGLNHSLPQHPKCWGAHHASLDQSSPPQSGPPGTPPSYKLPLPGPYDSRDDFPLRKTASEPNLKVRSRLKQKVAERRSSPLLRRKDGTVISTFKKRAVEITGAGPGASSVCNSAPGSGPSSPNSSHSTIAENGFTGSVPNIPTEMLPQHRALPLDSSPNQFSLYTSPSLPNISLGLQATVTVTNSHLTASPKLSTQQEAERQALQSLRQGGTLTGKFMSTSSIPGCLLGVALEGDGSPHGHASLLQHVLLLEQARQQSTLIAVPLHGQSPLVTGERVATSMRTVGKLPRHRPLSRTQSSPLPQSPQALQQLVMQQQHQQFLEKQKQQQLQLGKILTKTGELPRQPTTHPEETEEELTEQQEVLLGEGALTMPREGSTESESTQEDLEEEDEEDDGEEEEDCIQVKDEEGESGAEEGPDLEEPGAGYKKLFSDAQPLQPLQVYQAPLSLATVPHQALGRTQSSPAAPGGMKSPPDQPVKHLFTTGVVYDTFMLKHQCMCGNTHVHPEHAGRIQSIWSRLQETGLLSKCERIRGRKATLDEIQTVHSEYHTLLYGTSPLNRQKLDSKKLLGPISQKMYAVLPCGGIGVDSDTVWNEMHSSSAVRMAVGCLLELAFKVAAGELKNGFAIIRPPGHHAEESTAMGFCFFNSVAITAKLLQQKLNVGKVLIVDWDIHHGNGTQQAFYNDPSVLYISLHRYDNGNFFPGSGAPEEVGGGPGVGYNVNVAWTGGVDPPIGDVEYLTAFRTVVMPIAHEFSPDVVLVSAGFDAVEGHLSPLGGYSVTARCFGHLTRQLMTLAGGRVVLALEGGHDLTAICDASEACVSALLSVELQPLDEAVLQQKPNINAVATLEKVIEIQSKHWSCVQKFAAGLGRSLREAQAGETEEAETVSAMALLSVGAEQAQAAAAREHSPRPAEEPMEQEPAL", "experiment": "Inhibition of HDAC5 (unknown origin) using Boc-Lys(trifluoroacetyl)-AMC fluorogenic acetylated peptide substrate by fluorometric assay"}, "Histone deacetylase 9": {"molecular_target": "Histone deacetylase 9 (Homo sapiens, UniProt Q9UKV0)", "sequence (Q9UKV0 whole entry)": "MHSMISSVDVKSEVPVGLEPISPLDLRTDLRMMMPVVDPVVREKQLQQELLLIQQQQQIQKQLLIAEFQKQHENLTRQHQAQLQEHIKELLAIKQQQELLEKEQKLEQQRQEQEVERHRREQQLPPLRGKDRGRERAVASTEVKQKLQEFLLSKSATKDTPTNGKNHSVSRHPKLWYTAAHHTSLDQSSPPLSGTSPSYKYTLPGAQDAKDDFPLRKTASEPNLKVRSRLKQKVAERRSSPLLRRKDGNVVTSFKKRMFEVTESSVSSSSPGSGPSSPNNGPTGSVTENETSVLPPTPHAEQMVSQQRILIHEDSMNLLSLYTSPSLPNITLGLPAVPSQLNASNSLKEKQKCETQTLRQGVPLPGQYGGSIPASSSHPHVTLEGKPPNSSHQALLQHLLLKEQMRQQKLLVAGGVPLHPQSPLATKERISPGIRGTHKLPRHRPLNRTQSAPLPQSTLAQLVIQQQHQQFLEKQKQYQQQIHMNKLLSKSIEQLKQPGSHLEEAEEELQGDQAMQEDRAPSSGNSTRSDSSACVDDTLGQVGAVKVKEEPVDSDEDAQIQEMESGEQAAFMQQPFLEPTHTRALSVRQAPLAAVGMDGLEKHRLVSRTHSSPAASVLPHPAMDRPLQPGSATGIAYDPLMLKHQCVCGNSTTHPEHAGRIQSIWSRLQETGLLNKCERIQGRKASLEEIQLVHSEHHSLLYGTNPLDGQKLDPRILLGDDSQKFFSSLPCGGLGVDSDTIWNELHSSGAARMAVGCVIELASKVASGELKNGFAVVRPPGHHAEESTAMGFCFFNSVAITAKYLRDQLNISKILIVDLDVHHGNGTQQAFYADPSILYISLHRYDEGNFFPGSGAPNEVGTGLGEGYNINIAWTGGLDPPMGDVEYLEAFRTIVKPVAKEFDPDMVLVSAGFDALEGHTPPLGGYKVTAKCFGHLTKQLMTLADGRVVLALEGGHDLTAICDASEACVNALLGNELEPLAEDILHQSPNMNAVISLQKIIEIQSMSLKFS", "experiment": "Inhibition of HDAC9 (unknown origin) using Boc-Lys(trifluoroacetyl)-AMC fluorogenic acetylated peptide substrate by fluorometric assay"}, "K562": {"test_system": "K562", "experiment": "cells", "format": "functional, cell-based", "settings": "Homo sapiens"}, "cells": {"experiment": "cells", "format": "functional, cell-based", "settings": "Homo sapiens, IR-K562"}, "THP-1": {"test_system": "THP-1", "experiment": "cells", "format": "functional, cell-based", "settings": "Homo sapiens"}, "U-937": {"test_system": "U-937", "experiment": "cells", "format": "functional, cell-based", "settings": "Homo sapiens"}, "[2]": {"experiment": "Cytotoxicity against HEK293 cells assessed as reduction in cell viability", "format": "cell-based", "settings": "human"}, "in vitro [3]": {"experiment": "in vitro", "settings": "human, HEK293 cells (CC50) versus K562 cells (IC50)"}, "in vitro [4]": {"experiment": "in vitro", "settings": "human"}, "in vitro [5]": {"experiment": "in vitro", "settings": "human, HEK293 cells (CC50) versus THP1 cells (IC50)"}, "in vitro [6]": {"experiment": "in vitro", "settings": "human, HEK293 cells (CC50) versus U937 cells (IC50)"}, "[7]": {"experiment": "Cytotoxicity against imatinib resistant human IR-K562 cells assessed as cell viability at 250 nM incubated for 8 days (reference value: 89.4%)", "format": "functional", "settings": "IR-K562, 192 h, read-out: Activity"}, "[8]": {"experiment": "Cytotoxicity against imatinib resistant human IR-K562 cells assessed as cell viability at 250 nM incubated for 1 day (reference value: 73.9%)", "format": "functional", "settings": "IR-K562, 24 h, read-out: Activity"}, "[9]": {"experiment": "Cytotoxicity against imatinib resistant human IR-K562 cells assessed as cell viability at 250 nM incubated for 3 days (reference value: 79.5%)", "format": "functional", "settings": "IR-K562, 72 h, read-out: Activity"}, "[10]": {"experiment": "Cytotoxicity against imatinib resistant human IR-K562 cells assessed as cell viability at 250 nM incubated for 5 days (reference value: 86.7%)", "format": "functional", "settings": "IR-K562, 120 h, read-out: Activity"}}, "data": [{"smiles": "C[C@@H](NC(=O)c1cccc(=S)n1O)C(=O)O", "values": [{"measurement": "IC50", "setting": "Histone deacetylase 1", "value": 270, "unit": "µM"}, {"measurement": "IC50", "setting": "Histone deacetylase 2", "value": 400, "unit": "µM"}, {"measurement": "IC50", "setting": "Histone deacetylase 8", "value": 0.98, "unit": "µM"}, {"measurement": "IC50", "setting": "[1]", "value": 4.2, "unit": "µM"}, {"measurement": "IC50", "setting": "Histone deacetylase 4", "value": 100, "unit": "µM"}, {"measurement": "IC50", "setting": "Histone deacetylase 5", "value": 37, "unit": "µM"}, {"measurement": "IC50", "setting": "Histone deacetylase 9", "value": 58, "unit": "µM"}, {"measurement": "IC50", "setting": "K562", "value": 3.7, "unit": "µM"}, {"measurement": "IC50", "setting": "cells", "value": 18, "unit": "µM"}, {"measurement": "IC50", "setting": "THP-1", "value": 2.2, "unit": "µM"}, {"measurement": "IC50", "setting": "U-937", "value": 25, "unit": "µM"}]}, {"smiles": "O=C(N[C@@H](C(=O)O)c1ccccc1)c1cccc(=S)n1O", "values": [{"measurement": "IC50", "setting": "Histone deacetylase 1", "value": 93, "unit": "µM"}, {"measurement": "IC50", "setting": "Histone deacetylase 2", "value": 95, "unit": "µM"}, {"measurement": "IC50", "setting": "Histone deacetylase 8", "value": 1.2, "unit": "µM"}, {"measurement": "IC50", "setting": "[1]", "value": 8.8, "unit": "µM"}, {"measurement": "IC50", "setting": "Histone deacetylase 4", "value": 64, "unit": "µM"}, {"measurement": "IC50", "setting": "Histone deacetylase 5", "value": 27, "unit": "µM"}, {"measurement": "IC50", "setting": "Histone deacetylase 9", "value": 34, "unit": "µM"}, {"measurement": "IC50", "setting": "K562", "value": 8.7, "unit": "µM"}, {"measurement": "IC50", "setting": "cells", "value": 24, "unit": "µM"}, {"measurement": "IC50", "setting": "THP-1", "value": 6.4, "unit": "µM"}, {"measurement": "IC50", "setting": "U-937", "value": 57, "unit": "µM"}, {"measurement": "CC50", "setting": "[2]", "value": 76, "unit": "µM"}]}, {"smiles": "O=C(O)c1cccc(=S)n1O", "values": [{"measurement": "IC50", "setting": "Histone deacetylase 1", "value": 43, "unit": "µM"}, {"measurement": "IC50", "setting": "Histone deacetylase 2", "value": 710, "unit": "µM"}, {"measurement": "IC50", "setting": "Histone deacetylase 8", "value": 3.3, "unit": "µM"}, {"measurement": "IC50", "setting": "[1]", "value": 0.15, "unit": "µM"}, {"measurement": "IC50", "setting": "Histone deacetylase 4", "value": 71, "unit": "µM"}, {"measurement": "IC50", "setting": "Histone deacetylase 5", "value": 35, "unit": "µM"}, {"measurement": "IC50", "setting": "Histone deacetylase 9", "value": 47, "unit": "µM"}, {"measurement": "IC50", "setting": "K562", "value": 18, "unit": "µM"}, {"measurement": "IC50", "setting": "cells", "value": 52, "unit": "µM"}, {"measurement": "IC50", "setting": "THP-1", "value": 25, "unit": "µM"}, {"measurement": "IC50", "setting": "U-937", "value": 75, "unit": "µM"}, {"measurement": "CC50", "setting": "[2]", "value": 97, "unit": "µM"}]}, {"smiles": "Cc1nc(Nc2ncc(C(=O)Nc3c(C)cccc3Cl)s2)cc(N2CCN(CCO)CC2)n1", "note": "[DASATINIB]", "values": [{"measurement": "IC50", "setting": "K562", "value": 0.08, "unit": "µM"}, {"measurement": "IC50", "setting": "cells", "value": 1.9, "unit": "µM"}, {"measurement": "IC50", "setting": "THP-1", "value": 6, "unit": "µM"}, {"measurement": "CC50", "setting": "[2]", "value": 16, "unit": "µM"}, {"measurement": "selectivity ratio", "setting": "in vitro [3]", "value": 200}, {"measurement": "selectivity ratio", "setting": "in vitro [4]", "value": 8.4}, {"measurement": "selectivity ratio", "setting": "in vitro [5]", "value": 2.6}, {"measurement": "selectivity ratio", "setting": "in vitro [6]", "value": "< 0.1"}]}, {"smiles": "Cc1ccc(NC(=O)c2ccc(CN3CCN(C)CC3)cc2)cc1Nc1nccc(-c2cccnc2)n1", "note": "[IMATINIB]", "values": [{"measurement": "viability at […]", "setting": "[7]", "value": 71.1, "unit": "%"}, {"measurement": "IC50", "setting": "K562", "value": 0.06, "unit": "µM"}, {"measurement": "IC50", "setting": "cells", "value": 1.1, "unit": "µM"}, {"measurement": "IC50", "setting": "THP-1", "value": 25, "unit": "µM"}, {"measurement": "IC50", "setting": "U-937", "value": 19, "unit": "µM"}, {"measurement": "CC50", "setting": "[2]", "value": 8.4, "unit": "µM"}, {"measurement": "viability at […]", "setting": "[8]", "value": 47, "unit": "%"}, {"measurement": "viability at […]", "setting": "[9]", "value": 58.7, "unit": "%"}, {"measurement": "viability at […]", "setting": "[10]", "value": 65.1, "unit": "%"}, {"measurement": "selectivity ratio", "setting": "in vitro [3]", "value": 140}, {"measurement": "selectivity ratio", "setting": "in vitro [4]", "value": 7.6}, {"measurement": "selectivity ratio", "setting": "in vitro [5]", "value": 0.34}, {"measurement": "selectivity ratio", "setting": "in vitro [6]", "value": 0.44}]}, {"smiles": "O=C(CCCCCCC(=O)Nc1ccccc1)NO", "note": "[VORINOSTAT]", "values": [{"measurement": "CC50", "setting": "[2]", "value": 100, "unit": "µM"}]}]}
